Assay results taken from US8026222B2, “Methods of use of glycomimetics with replacements for hexoses and n-acetyl hexosamines” (GlycoMimetics, Inc., priority 2007, dated 2011).

System: human umbilical vein endothelial cells (HUVECS)
Test: neutrophil rolling on endothelial cell monolayers under flow conditions (rolling index)
Type: cell-based
Settings: HUVEC monolayers incubated in glycated serum protein for 4 hours, perfused with human neutrophils (FIG. 18, FIG. 19)
Protocol: Monolayers of human umbilical vein endothelial cells (HUVECS) were incubated in glycated serum proteins (FIG. 18, glycated albumin, Gly-HSA or FIG. 19, glycated hemoglobin, Gly-Hb) for 4 hours. Monolayers were then inserted into a flow chamber and the chamber was perfused with human neutrophils (10^6 cell/ml) at a flow rate corresponding to a wall shear stress of 0.9 dynes/cm^2. Digital images were acquired and analyzed to determine the rolling index (RI) which is a measure of the degree of neutrophil rolling on the endothelial cell monolayer.

Substance: glycated hemoglobin: glycated serum protein used to stimulate endothelial cells
- increase in neutrophil rolling (rolling index): ~2.8 fold
